Series [1] is described as follows: Predicted metabolic stability, human hepatic microsomes. The format is in vitro ADME. The conditions noted are these: 10^−7 M, human hepatic microsomes 0.33 mg of prot/ml, NADPH. As for the experimental part: (§1) The predicted metabolic stability is tested by incubation of the compounds at a concentration of 10^−7M in the presence of mouse, rat or human hepatic microsomes (0.33 mg of prot/ml). After addition of NADPH (nicotinamide adenine dinucleotide phosphate, reduced form), samples are taken at 0, 5, 15, 30 and 60 minutes. The enzymatic reaction is stopped using methanol (V/V). The protein is precipitated by centrifugation and the supernatant is analysed by LC-MS-MS.

Series [2] concerns sigma (σ) receptors (ligand: haloperidol). Briefly: Affinity for receptors, displacement of labelled specific ligand: sigma. In kind it is binding. The note with it: concentration 10^−5 M. As for the experimental part:
(§2) The affinity for receptors is determined according to customary methods of relations between the specific ligand and the receptor, which may be of animal origin or a human recombinant. The affinity was determined by the method of displacement of the labelled specific ligand by the compound under test and expressed by the dissociation constant KI. The receptor affinity was accordingly studied for 28 conventional receptors.

A short description of series [3]: Predicted metabolic stability, mouse hepatic microsomes. In kind it is in vitro ADME. The conditions noted are these: 10^−7 M, mouse hepatic microsomes 0.33 mg of prot/ml, NADPH. As for the experimental part: as §1
The subject of series [4] is tyrosine hydroxylase (TH) protein. The experiment in a line: Induction of tyrosine hydroxylase (TH) in LC, SN and VTA of the mouse brain. The format is in vivo, Balb/C mouse. The note with it: for amount of TH in LC section 1: LC section 1 (posterior-to-anterior); for amount of TH in LC section 1 / amount of TH, LC, total: i.p. 20 mg/kg; for amount of TH in LC section 1 / amount of TH in LC section 2 / amount of TH in LC section 3 / amount of TH in LC section 4 / amount of TH in LC section 5 / amount of TH in LC section 6 / amount of TH in LC section 7 / amount of TH in LC section 8 / amount of TH in LC section 9 / amount of TH in LC section 10 / amount of TH in LC section 11 / amount of TH, LC, total: three days after single injection; for amount of TH in LC section 2: LC section 2, i.p. 20 mg/kg; for amount of TH in LC section 3: LC section 3, i.p. 20 mg/kg; for amount of TH in LC section 4: LC section 4, i.p. 20 mg/kg; for amount of TH in LC section 5: LC section 5, i.p. 20 mg/kg; for amount of TH in LC section 6: LC section 6, i.p. 20 mg/kg; for amount of TH in LC section 7: LC section 7, i.p. 20 mg/kg; for amount of TH in LC section 8: LC section 8, i.p. 20 mg/kg; for amount of TH in LC section 9: LC section 9, i.p. 20 mg/kg; for amount of TH in LC section 10: LC section 10, i.p. 20 mg/kg; for amount of TH in LC section 11: LC section 11, i.p. 20 mg/kg. An excerpt:
A search is made among the compounds for those which are capable of bringing about an increase in the tyrosine hydroxylase (TH) protein in the locus coeruleus (LC), substantia nigra (SN) and ventral tegmental area (VTA) of the brain of the Balb/C mouse. The animals used are consanguinal male mice of the pure Balb/C strain (Charles River Laboratories) aged 6 weeks at the time of treatment.
The mice are given a single injection, by the intraperitoneal route, of the compound under test, dissolved in 0.04M HCl solution (corresponding control: 0.04M HCl), if the compound is sufficiently soluble, or in olive oil 90%/DMSO 10% (corresponding control: olive oil 90%/DMSO 10%) for compounds that are insoluble in an aqueous medium. The volume injected is 100 μl. The test groups comprise 10 animals.
Three days after the injection of each compound, all the animals are sacrificed by decapitation. The brains are removed and then frozen in an isopentane solution at −30° C. for 45 seconds and subsequently stored at −80° C.
Serial coronal sections 20 microns thick are then taken using a cryomicrotome. Each structure of interest is then sampled along the posterior-anterior axis of the brain by taking sections at 80-micron spacings in the case of the LC and at 80- or 160-micron spacings in the case of the VTA and SN. The limits of those structures are those described in the atlas of Franklin and Paxinos. The total proteins of each of those sections are transferred by direct collection of the sections to a nitrocellulose filter (Millipore). The amounts of TH present in each sample are measured by immunochemistry, fluorimetric detection and image analysis.

Series [5] addresses dopaminergic receptors (type D2) (Homo sapiens, UniProt P14416). Briefly: Affinity for receptors, displacement of labelled specific ligand: D2. In kind it is binding. The conditions noted are these: for inhibition at 10 µM: concentration 10^−5 M; for inhibition at 0.1 µM: concentration 10^−7 M.
Series [6] deals with dopaminergic receptors (type D1) (Homo sapiens, UniProt P21728). The experiment in a line: Affinity for receptors, displacement of labelled specific ligand: D1. In kind it is binding. The conditions noted are these: for inhibition at 10 µM: concentration 10^−5 M; for inhibition at 0.1 µM: concentration 10^−7 M.
The target of series [7] is 5HT receptors (type 5HT2A) (Homo sapiens, UniProt P28223). Briefly: Affinity for receptors, displacement of labelled specific ligand: 5HT2A. In kind it is binding. The note with it: for inhibition at 10 µM: concentration 10^−5 M; for inhibition at 0.1 µM: concentration 10^−7 M.
The subject of series [8] is confluent endothelial cells from bovine capillaries. Briefly: Predicted crossing of the blood-brain barrier (BBB). Further details: key: high; intermediate; low. The conditions noted are these: 20 μM in upper compartment, filter with bovine capillary endothelial cells, 10-60 minutes, LC-MS-MS. In kind it is in vitro ADME. As to the method: The substances are incubated at 20 μM in the upper compartment of a double container, the upper compartment being separated from the lower compartment either solely by a polycarbonate filter or by the same filter covered with confluent endothelial cells from bovine capillaries. Evaluation of the permeability kinetics is carried out by means of LC-MS-MS quantification of the unchanged substance in the lower compartment after 10, 20, 30, 40 and 60 minutes.
The results are given in the form of the categories: high, intermediate, low.

A further series concerns muscarinic (M) receptors. The experiment in a line: Affinity for receptors, displacement of labelled specific ligand: muscarinic. In kind it is binding. As for the experimental part: as §2
A short description of series [9]: Predicted metabolic stability, rat hepatic microsomes. The format is in vitro ADME. The note with it: 10^−7 M, rat hepatic microsomes 0.33 mg of prot/ml, NADPH. As to the method:
as §1

[10] abbreviates: relative to mean value of control group.

Marks after values point to notes of the source that are not given here. Some results are limits rather than exact numbers.

Sequence of 5HT receptors (type 5HT2A) (P28223 whole entry): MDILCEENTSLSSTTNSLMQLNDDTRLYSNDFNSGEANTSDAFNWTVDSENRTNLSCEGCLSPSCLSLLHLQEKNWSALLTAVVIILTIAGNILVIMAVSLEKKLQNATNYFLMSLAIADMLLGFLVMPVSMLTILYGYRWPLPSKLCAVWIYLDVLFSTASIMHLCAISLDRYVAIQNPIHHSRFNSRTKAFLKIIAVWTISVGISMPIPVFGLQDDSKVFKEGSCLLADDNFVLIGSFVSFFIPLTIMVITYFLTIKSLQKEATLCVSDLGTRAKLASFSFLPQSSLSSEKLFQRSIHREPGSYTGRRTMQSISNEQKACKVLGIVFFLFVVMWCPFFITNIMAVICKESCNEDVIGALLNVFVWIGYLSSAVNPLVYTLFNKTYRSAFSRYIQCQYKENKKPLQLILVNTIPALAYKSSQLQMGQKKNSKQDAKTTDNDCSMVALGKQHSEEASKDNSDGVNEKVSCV
Sequence of dopaminergic receptors (type D2) (P14416 whole entry): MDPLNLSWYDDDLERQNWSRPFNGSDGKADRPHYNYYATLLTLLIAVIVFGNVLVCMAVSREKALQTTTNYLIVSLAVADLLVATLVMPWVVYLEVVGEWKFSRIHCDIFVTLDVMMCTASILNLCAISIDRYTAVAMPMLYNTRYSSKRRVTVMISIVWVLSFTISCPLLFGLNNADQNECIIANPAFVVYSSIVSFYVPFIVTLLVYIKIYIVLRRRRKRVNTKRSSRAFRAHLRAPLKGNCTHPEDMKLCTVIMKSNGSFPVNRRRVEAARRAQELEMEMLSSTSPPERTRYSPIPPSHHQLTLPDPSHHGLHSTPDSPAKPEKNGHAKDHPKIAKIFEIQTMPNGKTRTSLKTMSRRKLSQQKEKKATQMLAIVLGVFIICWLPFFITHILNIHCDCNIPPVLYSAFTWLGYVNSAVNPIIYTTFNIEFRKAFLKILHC
Sequence of dopaminergic receptors (type D1) (P21728 whole entry): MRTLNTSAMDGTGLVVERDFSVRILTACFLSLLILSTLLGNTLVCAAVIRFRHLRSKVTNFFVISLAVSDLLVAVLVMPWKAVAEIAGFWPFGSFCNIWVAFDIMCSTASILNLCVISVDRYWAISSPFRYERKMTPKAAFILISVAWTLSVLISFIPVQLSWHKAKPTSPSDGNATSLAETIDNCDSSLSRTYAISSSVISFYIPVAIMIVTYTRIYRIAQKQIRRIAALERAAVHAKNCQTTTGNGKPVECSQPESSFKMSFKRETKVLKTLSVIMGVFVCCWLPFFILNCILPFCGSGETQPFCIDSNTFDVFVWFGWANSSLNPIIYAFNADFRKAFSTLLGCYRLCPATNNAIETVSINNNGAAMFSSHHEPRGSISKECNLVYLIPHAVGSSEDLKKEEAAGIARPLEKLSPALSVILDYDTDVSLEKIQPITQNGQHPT

`CN1CCC=C(C(=O)Nn2ccc3ccccc32)C1` [Example 1, N-(1H-indol-1-yl)-1-methyl-1,2,5,6-tetrahydropyridine-3-carboxamide]: in series [1], the “% metabolic stability predicted using hepatic microsomes, Human” value is given as 70%. In series [2], the “% inhibition σ” value turned out to be 44%. Besides, in [3], the “% metabolic stability predicted using hepatic microsomes, Mouse” value is 40%. In [4] (setting [10]), the “amount of TH in LC section 1” value is 57%, the “amount of TH in LC section 2” value turned out to be 72%, the “amount of TH in LC section 3” value is 128% and the “amount of TH in LC section 4” value was determined as 128%. Besides, in series [4] (setting [10]), the “amount of TH in LC section 5” value is given as 158* %, the “amount of TH in LC section 6” value is on record as 152* %, the “amount of TH in LC section 7” value is recorded as 131% and the “amount of TH in LC section 8” value turned out to be 107%. For the same molecule, in series [4] (setting [10]), the “amount of TH in LC section 9” value is 106%; the “amount of TH in LC section 10” value came to 95%; the “amount of TH in LC section 11” value stood at 55%; the “amount of TH, LC, total” value was 121%. In addition, the “TH induction in the SN, in words” value in series [4] (SN) was “markedly induces TH”. In series [4] (VTA), the “TH induction in the VTA, in words” value was “markedly induces TH”. Further, the “TH induction in the medial LC (sections 4, 5 and 6), in words” value in series [4] (medial LC) is “markedly induces TH”. In addition, the “TH induction in the SN” value in series [4] (substantia nigra, single i.p. injection, relative to mean value of control group) is recorded as 155** %. In series [4] (ventral tegmental area, single i.p. injection, relative to mean value of control group), the “TH induction in the VTA” value was determined as 125%. Further, in series [5], the inhibition – broadly, the share of the control response that was lost under treatment – at 10 µM was less than 10% and the inhibition at 0.1 µM is less than 10%. Further, in series [6], the inhibition at 10 µM was less than 10% and the inhibition at 0.1 µM was less than 10%. For the same molecule, in series [7], the inhibition at 10 µM was less than 10% and the inhibition at 0.1 µM was less than 10%. The “degree of crossing of the BBB (category)” value in [8] is reported as “high”. In the series with muscarinic (M) receptors (concentration 10^−5 M), the “% inhibition M” value was found to be 23%.

On to `CN1CC[C@H](C(=O)Nn2ccc3ccccc32)[C@H](c2ccc(F)cc2)C1` [Example 38, (3R,4S)-3-(4-Fluorophenyl)-N-(1H-indol-1-yl)-1-methylpiperidine-4-carboxamide], for which the melting point (in general, the temperature, or range, at which the solid turns liquid) came out at 134 °C.

On to `CN1CCN(CCN2CCC=C(C(=O)Nn3ccc4cc(Cl)ccc43)C2)CC1` [Example 47, N-(5-Chloroindol-1-yl)-1-[2-(4-methylpiperazin-1-yl)ethyl]-1,2,5,6-tetrahydropyridine-3-carboxamide], for which the “% metabolic stability predicted using hepatic microsomes, Human” value in [1] is on record as 78%. In [2], the “% inhibition σ” value is on record as 67%. The “% metabolic stability predicted using hepatic microsomes, Mouse” value in series [3] is listed as 53%. Further, in [4] (setting [10]), the “amount of TH in LC section 1” value is given as 232** %, the “amount of TH in LC section 2” value is given as 138* %, the “amount of TH in LC section 3” value is 176** % and the “amount of TH in LC section 4” value was 179** %. Also, in series [4] (setting [10]), the “amount of TH in LC section 5” value is 172** %, the “amount of TH in LC section 6” value is recorded as 169** %, the “amount of TH in LC section 7” value is listed as 153** % and the “amount of TH in LC section 8” value is given as 140** %. In series [4] (setting [10]), the “amount of TH in LC section 9” value is recorded as 84* %; the “amount of TH in LC section 10” value is recorded as 88%; the “amount of TH in LC section 11” value was 127%; the “amount of TH, LC, total” value is reported as 147** %. In series [5], this molecule registered an inhibition at 10 µM of less than 10% and an inhibition at 0.1 µM of less than 10%. In [6], the inhibition at 10 µM is less than 10% and the inhibition at 0.1 µM was less than 10%. Moreover, in [7], the inhibition at 10 µM worked out at 15% and 0.1 µM produced 10% inhibition. Moreover, the “% inhibition M” value in the series on muscarinic (M) receptors (concentration 10^−5 M) is 10%. For the same molecule, the “% inhibition M” value in the series on muscarinic (M) receptors (concentration 10^−7 M) is recorded as 19%. Also, the “% metabolic stability predicted using hepatic microsomes, Rat” value in series [9] is 87%.

The values are drawn from patent US20090258883A1, “1H-Indole-Pyridinecarboxamide and 1H-Indole-Piperidinecarboxamide Compounds” (LES LABORATOIRES SERVIER, priority 2005, published 2009).
